Measured values published in patent publication US5750534A (priority 1996, dated 1998).
Entries after “also recorded” stand apart in the source; their conditions may differ. Structures can show the parent of a compound that is named as a salt. Where two headings read alike, the source gives them in different places.

Assays:
[1] = Shafer et al., Anesthesiology 1991; cited from earlier work
[2] = cited from earlier work; for dosing interval: Hemstrom et al.
[3] = test system: Sprague-Dawley rats (antinociceptive threshold); test: Rat cold ethanol tail-flick test, pharmacodynamic study of nalbuphine arachidate; type: in vivo; conditions: for analgesic effect (significance): FIGS. 21 and 22
[4] = test system: humans (analgesia); test: Estimate of human analgesic duration and dose from rat/human dose ratio; conditions: 1.56 μM/kg i.m., calculated from rat
[5] = test system: Sprague-Dawley rats (nociceptive threshold); type: in vivo, rat
[6] = plasma half time; FIG. 18
[7] = test system: patients (analgesia); conditions: 10 mg/65 kg (0.154 mg/kg) i.m., 65-kg patient; cited from earlier work
[8] = test system: humans; test: Analgesic effect for human intramuscular injection; type: in vivo; conditions: human i.m.
[9] = Water solubility; type: physicochemical
[10] = 25 micromole/kg i.m., prodrugs in sesame oil, Table 2 / FIG. 17
[11] = 25 micromole/kg i.m., Table 2 / FIG. 17

For `CO[C@]12CC[C@@]3(C[C@@H]1[C@](C)(O)C(C)(C)C)[C@H]1Cc4ccc(O)c5c4[C@@]3(CCN1CC1CC1)[C@H]2O5` [buprenorphine], the “dose needed to elicit the same analgesic effect” value (from here on “dose needed”) [1] is given as 0.3 mg.
For `Oc1ccc2c(c1)[C@@]13CCCC[C@@]1(O)[C@@H](C2)N(CC1CCC1)CC3` [butorphanol], the “dose needed” value [1] is listed as 2 mg.
In the case of `CCCCCCCCCC(=O)OC1(c2ccc(Cl)cc2)CCN(CCCC(=O)c2ccc(F)cc2)CC1` [haloperidol decanoate], the dosing interval [2] is given as 1-2 times a month.
For `O=C(CCCN1CCC(O)(c2ccc(Cl)cc2)CC1)c1ccc(F)cc1` [haloperidol], the dosing interval [2] is given as 2-4 times a day.
For `CN1CC[C@]23c4c5ccc(O)c4O[C@H]2[C@@H](O)C=C[C@H]3[C@H]1C5` [morphine], the “dose needed” value [1] is listed as 10 mg.
With `CCCCCCCCCCCCCCCCCCCC(=O)Oc1ccc2c3c1OC1C(O)CCC4(O)C(C2)N(CC2CCC2)CCC314` (stereo not shown) [nalbuphine arachidate] the “duration of analgesic effect in words” value ([3]; 25 μM/kg i.m., rats) was “longer than that of nalbuphine HCl; also recorded: long duration of analgesic effect; also recorded: very long duration of analgesic effect”, the “duration of analgesic effect” value ([3]; 25 μM/kg i.m., sesame oil suspension, rats) was 4 to 5 days and the “analgesic effect (significance)” value ([3]; 25 μM/kg i.m.) was “significant analgesic effects”. For the same molecule, the “estimated analgesic duration in humans” value [4] was 4 to 5 days.
With `O=C(Oc1ccc2c3c1OC1C(O)CCC4(O)C(C2)N(CC2CCC2)CCC314)c1ccccc1` (stereo not shown) [nalbuphine benzoate] the “50% analgesic effect (time)” value [5, 10] was 3.5 days, the “20% analgesic effect (time)” value ([5]; 25 micromole/kg i.m., Table 2) was 4.0 D and the “10% analgesic effect (time)” value [5, 11] was 4.0 D.
In the case of `CCCCCCCCCC(=O)Oc1ccc2c3c1O[C@H]1[C@@H](O)CC[C@@]4(O)[C@@H](C2)N(CC2CCC2)CC[C@]314` [nalbuphine decanoate], the “50% analgesic effect (time)” value [5, 10] is reported as 6.7 days, the “20% analgesic effect (time)” value ([5]; 25 micromole/kg i.m., Table 2) is reported as 7.5 D and the “10% analgesic effect (time)” value [5, 11] is reported as 8.2 D. For the same molecule, the “increase of duration over nalbuphine hydrochloride” value [6] was 30 times.
In the case of `CCCCCCC(=O)Oc1ccc2c3c1OC1C(O)CCC4(O)C(C2)N(CC2CCC2)CCC314` (stereo not shown) [nalbuphine enanthate], the “50% analgesic effect (time)” value [5, 10] is reported as 3.9 days, the “20% analgesic effect (time)” value ([5]; 25 micromole/kg i.m., Table 2) is reported as 3.4 D and the “10% analgesic effect (time)” value [5, 11] is reported as 3.6 D.
For `Oc1ccc2c3c1O[C@H]1[C@@H](O)CC[C@@]4(O)[C@@H](C2)N(CC2CCC2)CC[C@]314` [nalbuphine hydrochloride, reference compound], the “analgesic duration (Discussion)” value ([3]; 25 μM/kg (9.86 mg/kg) i.m., rats) was “about 2 hours”, the “duration of analgesic effect” value ([3]; 25 μM/kg i.m., in 0.9% saline, rats) was 0.17 days and the “analgesic effect (significance)” value ([3]; 25 μM/kg i.m.) was “significant analgesic effects”. For the same molecule, the “10% analgesic effect (time)” value ([5]; rat, in vivo) was 5.0 H, the “10% analgesic effect (time), rat” value ([5]; rat, in vivo) was 2.4 h and the “10% analgesic effect (time), text” value ([5]; rat, in vivo) was 12 h. For the same molecule, the “20% analgesic effect (time)” value ([5]; rat, in vivo) was 4.4 H, the “20% analgesic effect (time), rat” value ([5]; rat, in vivo) was 2.1 h and the “50% analgesic effect (time)” value ([5]; rat, in vivo) was 2.5. The “50% analgesic effect (time), rat” value ([5]; rat, in vivo) was 1.1 h, the “analgesic duration, clinical” value [7] was 2 to 3 h and the “10% analgesic effect (time), human” value [8] was 5.0 h. The “20% analgesic effect (time), human” value [8] was 4.4 h and the “50% analgesic effect (time), human” value ([8]; 0.8 nmole/kg as printed) was 2.5 h.
With `CC(C)(C)C(=O)Oc1ccc2c3c1OC1C(O)CCC4(O)C(C2)N(CC2CCC2)CCC314` (stereo not shown) [nalbuphine pivalate] the “50% analgesic effect (time)” value [5, 10] was 3.2 days, the “20% analgesic effect (time)” value ([5]; 25 micromole/kg i.m., Table 2) was 3.6 D and the “10% analgesic effect (time)” value [5, 11] was 3.8 D.
For `CCC(=O)Oc1ccc2c3c1OC1C(O)CCC4(O)C(C2)N(CC2CCC2)CCC314` (stereo not shown) [nalbuphine propionate monohydrochloride], the water solubility [9] was “water soluble”.
In the case of `CCC(=O)Oc1ccc2c3c1OC1C(O)CCC4(O)C(C2)N(CC2CCC2)CCC314` (stereo not shown) [nalbuphine propionate], the “50% analgesic effect (time)” value [5, 10] is reported as 0.417 days, the “10% analgesic effect (time)” value ([5]; 25 micromole/kg i.m., Table 2) is reported as 12 H and the “20% analgesic effect (time)” value ([5]; 25 micromole/kg i.m., Table 2) is reported as 11 H.
With `Oc1ccc2c3c1O[C@H]1[C@@H](O)CC[C@@]4(O)[C@@H](C2)N(CC2CCC2)CC[C@]314` [nalbuphine] the “amount of released nalbuphine free base (FIG. 15)” value (between 17 and 28 hours, p<0.05) was “less in the preparations with sesame oil than with peanut oil ester and the control” and the “release times (FIG. 16)” value (nalbuphine base versus hydrochloride) was “significantly increased”.
For `C#C[C@]1(OC(=O)CCCCCC)CC[C@H]2[C@@H]3CCC4=CC(=O)CC[C@@H]4[C@H]3CC[C@@]21C` [northisterone enanthate], the “dosing interval in words” value ([2]; Joshi et al.) is listed as “once every 2 months”.
